This is an account of results in patent publication US20240285630A1, “Methods and compositions for improving exercise performance” (MEZZION PHARMA CO., LTD., priority 2021, published 2024).

Data set [1] deals with adolescents with Fontan physiology. Put plainly: FUEL Trial peripheral arterial tonometry (EndoPAT), log-transformed reactive hyperemia index. The class given is in vivo, human. Conditions: for Log-transformed reactive hyperemia index, difference Week 26 - baseline, mean (SD): paired data. From the text: Baseline clinical testing completed before drug initiation included a blood draw to measure brain-type natriuretic peptide (BNP) level, a cardiopulmonary exercise test (CPET) using a standardized cycle ergometer ramp protocol, a standardized echocardiogram, and an assessment of peripheral vascular function using peripheral arterial tonometry (PAT) measured by finger cuff (EndoPAT; Itamar Medical, Israel). Participants who achieved maximal effort, defined as respiratory exchange ratio (RER)≥1.10 at peak exercise during CPET, were eligible for randomization and study drug initiation. […] End-of-study clinical testing included repeat measurement of serum BNP, CPET, echocardiogram, and PAT.
Baseline clinical testing completed before drug initiation included a blood draw to measure brain-type natriuretic peptide (BNP) level, a cardiopulmonary exercise test (CPET) using a standardized cycle ergometer ramp protocol (previously described in children and adolescents with Fontan physiology, Sleeper L A, Anderson P, Hsu D T, Mahony L, McCrindle B W, Roth S J, Saul J P, Williams R V, Geva T, Colan S D, Clark B J and Pediatric Heart Network I. Design of a large cross-sectional study to facilitate future clinical trials in children with the Fontan palliation. Am Heart J. 152(3):427-433 (September 2006), a standardized echocardiogram, and an assessment of peripheral vascular function using peripheral arterial tonometry (PAT) measured by finger cuff (EndoPAT; Itamar Medical, Israel). Participants who achieved maximal effort, defined as respiratory exchange ratio (RER)>1.10 at peak exercise during CPET, were eligible for randomization and study drug initiation. […] End-of-study clinical testing included repeat measurement of serum BNP, CPET, echocardiogram, and PAT. […]

The test system is the same in data set [2]. The experiment in a line: FUEL Trial safety, adverse event reports. Format: in vivo, human. From the text:
The primary outcome was the change in oxygen consumption at peak exercise (max or peak VO2) from baseline to the 26-week visit. Secondary exercise outcomes included change in additional measures at maximal exertion, as well as change in measures of submaximal exercise at the ventilatory anaerobic threshold (VAT). The primary outcome for clinical secondary aims included change in myocardial performance index (MPI), an echocardiographically-derived measure of systolic and diastolic ventricular function, change in log-transformed reactive hyperemia index (InRHI), a PAT-derived measure of peripheral vascular function, and change in log-transformed serum BNP level. Safety was monitored through adverse event reports, which were collected according to a pre-specified protocol of study coordinator outreach, and through ad hoc patient and family communication with members of the study team at each site.
The primary outcome for clinical secondary aims included the between group differences in change in myocardial performance index (MPI), an echocardiographically-derived measure of systolic and diastolic ventricular function, change in log-transformed reactive hyperemia index (InRHI), a PAT-derived measure of peripheral vascular function, and change in log-transformed serum BNP level. Measurements for each of these secondary outcomes were performed at core labs. Safety was monitored through adverse event reports, which were collected according to a pre-specified protocol of study coordinator outreach, and through ad hoc patient and family communication with members of the study team at each site.
A sample size of 200 participants per arm was chosen to allow for 90% power to detect a mean treatment difference in change from baseline to 26-week testing in peak VO2 of 10% with a type 1 error of 0.05. We assumed a baseline standard deviation of 7.235 ml/kg/min, a correlation between peak VO2 measurements of 0.33, a drop-out and incomplete testing rate of 10%, and failure to reach maximal effort at the 26-week exercise testing in 15% of participants. These assumptions were based on historical data and reflect a conservative approach to assessing within-participant correlations and failure to reach maximal effort and the analysis was performed using a two-sample, independent means t-test. The primary analysis used the intention-to-treat population to evaluate the difference in the change in the primary outcome between treatment arms. This difference was assessed with an analysis of covariance (ANCOVA) with fixed factors for ventricular morphology (single left versus single right or mixed) and treatment group, with a continuous covariate of baseline peak VO2. For those without data at the 26-week visit, this value was imputed as equal to the baseline value (no change). The alpha level was set at 0.05 with two-sided testing. All statistical analyses were performed using SAS statistical software 9.4 (SAS Institute, Inc., Cary, North Carolina). Secondary analyses included participants who successfully completed the protocol with measurable values at each of the secondary endpoints. Secondary outcomes of continuous data points were analyzed in the manner described for the primary outcome. In order to assess the generalizability of findings at the ventilatory anaerobic threshold, demographic and clinical characteristics were compared between participants without paired VO2 at VAT data and those comprising the remainder of the cohort using the Student's t-test and Fisher's exact test. Fisher's exact test was used to compare adverse events between the udenafil and placebo cohorts.

SMILES strings stand for the structures.

`CCCOc1ccc(S(=O)(=O)NCCC2CCCN2C)cc1-c1nc2c(CCC)nn(C)c2c(=O)[nH]1` (stereo not shown) [Udenafil, udenafil]: in data set [1] (ANCOVA), the “Log-transformed reactive hyperemia index, difference LS Mean (SE), udenafil vs placebo” value is recorded as 0.02 (0.030). The “Log-transformed reactive hyperemia index, difference Week 26 - baseline, mean (SD)” value in data set [1] was 0.06 (0.301). The “Log-transformed reactive hyperemia index, difference Week 26 - baseline, mean (SD)” value in data set [1] (listed as udenafil) stood at 0.07. Also, in data set [2] (human, in vivo, 26 weeks), the “Dizziness, % of participants” value is “(8.0) %”; the “Dizziness, number of participants” value is 16; the “Epistaxis, % of participants” value was “(10.5) %”; the “Epistaxis, number of participants” value is 21. Further, in data set [2] (human, in vivo, 26 weeks), the “Flushing, % of participants” value is given as “(16.0) %”; the “Flushing, number of participants” value is 32; the “Headache, % of participants” value was “(39.5) %”; the “Headache, number of participants” value stood at 79. Further, in data set [2] (human, in vivo, 26 weeks), the “Nausea/vomiting, % of participants” value was “(15.5) %”; the “Nausea/vomiting, number of participants” value was found to be 31; the “Participants who experienced a serious adverse event” value is reported as 14; the “Serious adverse events with possible, probable, or definite relationship to study drug” value came to 3. Also, the Priapism result in data set [2] (in vivo) is “no reported episodes of priapism”. In data set [2] (male, human, in vivo, 26 weeks), the “Increased erection, % of male participants” value is “(11.7) %” and the “Increased erection, number of participants” value was 13. The Deaths entry in data set [2] (study cohort) is given as “no deaths”.
